Our source for the EC50, Ki and cartilage damage score values is patent publication US10988505B2.

One experiment relates to X31 H3N2 influenza virus. The experiment in a line: Influenza virus replication X31 in Calu-3 cells (viral plaque assay). The format is cell-based. The conditions noted are these: Calu-3 human bronchial epithelial cells, 48 h, read-out: calu3_x31_H3N2 EC50 (avg).
The target in experiment [1] is recombinant human matriptase (Homo sapiens (Human), UniProt Q9Y5Y6). The experiment in a line: Matriptase inhibition, Ki determination. In kind it is biochemical. The conditions noted are these: purified recombinant human matriptase, Boc-Gln-Ala-Arg-AMC substrate, pH 7.4.
The test system of the next experiment is cartilage damage. The experiment in a line: Osteoarthritis (OA) model, DMM surgery. The format is in vivo, C57BL/6J mice. The settings on record: DMM mice, 5 microlitre intraarticular injections of 10 mg/ml in saline on days 7 and 28, scored day 56. The method, then:
The ability of the tested compound to protects against in vivo aggrecan loss in an osteoarthritis (OA) model was evaluated as described by Litherland G J. et al. Arthritis Rheumatol 2014; 66:2175-87.
OA was induced in C57BL/6J mice following destabilization of the medial meniscus (DMM) surgery. Mice received 5 microlitre intraarticular injections of either saline or Compound 1 (10 mg/ml in saline) on days 7 and 28 post surgery. At day 56 post-surgery, mice were killed, knee joints isolated and fixed overnight in 7% formaldehyde in PBS. Joints were decalcified in EDTA in PBS for 10 days and then wax embedded. Consecutive sections (6 μm) were stained with safranin 0 with hematoxylin counterstaining and then cartilage damage graded (by two blinded, independent observers) according to a published grading system [Litherland, 2014]: 0 (normal) to 6 (vertical clefts/erosion to the calcified cartilage extending to […] of the articular surface). Bars show the mean+/−SD of the highestscores in the medial tibial and femoral condyles for each joint. […] The results are depicted in FIG. 1.
**P<0.01 for the control and ***P<0.001 for Compound 1, by Kruskal-Wallis test with Dunn's multiple comparison test.

SMILES strings stand for the structures.

recombinant human matriptase, sequence (Q9Y5Y6 615-855, other chains not shown): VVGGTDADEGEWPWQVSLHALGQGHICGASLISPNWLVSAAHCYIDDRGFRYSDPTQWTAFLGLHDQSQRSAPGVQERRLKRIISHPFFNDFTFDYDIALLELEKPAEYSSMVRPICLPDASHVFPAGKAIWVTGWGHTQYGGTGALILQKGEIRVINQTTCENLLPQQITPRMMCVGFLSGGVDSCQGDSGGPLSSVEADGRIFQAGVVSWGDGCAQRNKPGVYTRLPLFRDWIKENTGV

As to `CC(=O)N[C@@H](CCC(N)=O)C(=O)N[C@@H](Cc1ccccc1)C(=O)N[C@@H](CCCNC(=N)N)C(=O)c1nc2ccccc2s1` [Example 3], the EC50 (in general, the concentration that produces a half-maximal response) in the experiment on X31 H3N2 influenza virus was 34 nM. The same measure, in the same setting: next, `C[C@H](NC(=O)[C@H](CCC(N)=O)NC(=O)[C@@H](N)CCCNC(=N)N)C(=O)N[C@@H](CCCNC(=N)N)C(=O)c1nc2ccccc2s1` [Comparative #1, reference compound]: 7700 nM.

With `N=C(N)NCCCCC(=O)N[C@@H](CCC(N)=O)C(=O)N[C@@H](Cc1ccccc1)C(=O)N[C@@H](CCCNC(=N)N)C(=O)c1nc2ccccc2s1` [Example 1], the EC50 in the experiment on X31 H3N2 influenza virus was 20.9 nM. Moreover, in experiment [1], the Ki (commonly a measure of affinity in units of concentration, obtained from inhibition or displacement) was determined as 0.134 nM. In the experiment on cartilage damage, the cartilage damage score entry is given as “decreased the cartilage damage score”. As for `C[C@H](NC(=O)[C@@H](N)CCC(N)=O)C(=O)N[C@@H](CCCNC(=N)N)C(=O)c1nc2ccccc2s1` [Comparative #2, reference compound], the EC50 in the experiment with X31 H3N2 influenza virus was 5690 nM. Further, the Ki in experiment [1] was determined as 0.0877 nM.
